Measured values reported in ChEMBL document CHEMBL1130676, “Aryl ketones as novel replacements for the C-terminal amide bond of succinyl hydroxamate MMP inhibitors” (Bioorg Med Chem Lett, 1998).

Legend:
[1] = Oral bioavailability in monkey (dose 10 mg/kg); assay type: ADME, organism-based; conditions: primates, in vivo
[2] = Half life was measured in monkey at dose of 10 mg/kg by po administration; assay type: ADME, organism-based; design: dose 10 mg/kg, route oral; conditions: primates, in vivo
Interstitial collagenase = biological target: T1, Interstitial collagenase (Homo sapiens, UniProt P03956); assay: In vitro inhibitory activity against matrix metalloprotease 1 isolated from the culture medium of human skin fibroblasts induced with PMA
T1 sequence (P03956 whole entry): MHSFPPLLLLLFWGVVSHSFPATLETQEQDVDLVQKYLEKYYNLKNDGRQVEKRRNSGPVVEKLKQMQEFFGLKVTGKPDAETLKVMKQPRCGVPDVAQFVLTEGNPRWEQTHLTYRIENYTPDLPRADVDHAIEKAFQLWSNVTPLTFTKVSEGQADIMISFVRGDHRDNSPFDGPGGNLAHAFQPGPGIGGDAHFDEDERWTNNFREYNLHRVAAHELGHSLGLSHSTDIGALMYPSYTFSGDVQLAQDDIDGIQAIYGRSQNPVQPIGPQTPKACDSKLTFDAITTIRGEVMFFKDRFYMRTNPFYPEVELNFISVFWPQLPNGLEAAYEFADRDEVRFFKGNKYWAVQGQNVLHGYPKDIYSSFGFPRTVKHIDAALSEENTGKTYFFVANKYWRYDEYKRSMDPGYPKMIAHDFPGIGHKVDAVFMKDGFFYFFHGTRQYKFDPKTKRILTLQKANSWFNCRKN

[3] = biological target: T2, 72 kDa type IV collagenase (Homo sapiens, UniProt P08253); assay: In vitro inhibitory activity against matrix metalloprotease 2 isolated from human HT1080 fibrosarcoma cells induced with TNF
T2 sequence (P08253 whole entry): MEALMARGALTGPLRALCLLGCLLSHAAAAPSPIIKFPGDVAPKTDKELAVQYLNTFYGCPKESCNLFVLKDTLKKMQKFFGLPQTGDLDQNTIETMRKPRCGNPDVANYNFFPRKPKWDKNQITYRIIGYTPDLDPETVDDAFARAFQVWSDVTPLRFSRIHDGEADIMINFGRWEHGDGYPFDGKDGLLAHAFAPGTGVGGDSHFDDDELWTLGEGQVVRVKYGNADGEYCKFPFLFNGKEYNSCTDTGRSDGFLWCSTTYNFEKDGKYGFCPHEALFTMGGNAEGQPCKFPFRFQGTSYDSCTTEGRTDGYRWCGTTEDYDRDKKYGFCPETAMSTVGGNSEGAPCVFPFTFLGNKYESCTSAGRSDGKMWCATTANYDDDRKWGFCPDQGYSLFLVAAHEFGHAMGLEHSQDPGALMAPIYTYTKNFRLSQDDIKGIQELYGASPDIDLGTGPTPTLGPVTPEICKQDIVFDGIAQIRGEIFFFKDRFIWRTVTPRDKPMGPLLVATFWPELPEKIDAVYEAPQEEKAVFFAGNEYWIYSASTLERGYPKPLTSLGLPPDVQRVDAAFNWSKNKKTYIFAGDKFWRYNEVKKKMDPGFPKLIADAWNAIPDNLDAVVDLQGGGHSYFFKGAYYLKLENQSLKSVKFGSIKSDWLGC

Stromelysin-1 [4] = biological target: T3, Stromelysin-1 (Homo sapiens, UniProt P08254); assay: In vitro inhibitory activity against human recombinant matrix metalloprotease 3
T3 sequence (P08254 whole entry): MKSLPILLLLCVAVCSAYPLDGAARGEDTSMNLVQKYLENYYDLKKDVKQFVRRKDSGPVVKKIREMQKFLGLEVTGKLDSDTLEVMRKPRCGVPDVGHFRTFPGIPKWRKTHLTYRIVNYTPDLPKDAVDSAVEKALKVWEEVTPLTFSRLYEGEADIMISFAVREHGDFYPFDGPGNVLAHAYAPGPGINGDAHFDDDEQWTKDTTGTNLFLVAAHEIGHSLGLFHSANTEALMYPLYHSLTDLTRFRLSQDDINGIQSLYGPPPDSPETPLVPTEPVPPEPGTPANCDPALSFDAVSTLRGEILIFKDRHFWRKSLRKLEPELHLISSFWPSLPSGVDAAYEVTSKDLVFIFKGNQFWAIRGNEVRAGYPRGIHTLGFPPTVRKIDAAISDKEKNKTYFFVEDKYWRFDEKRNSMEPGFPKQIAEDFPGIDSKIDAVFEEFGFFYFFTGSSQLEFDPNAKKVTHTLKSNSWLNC

Matrilysin = biological target: T4, Matrilysin (Homo sapiens, UniProt P09237); assay: In vitro inhibitory activity against human recombinant matrix metalloprotease 7
T4 sequence (P09237 whole entry): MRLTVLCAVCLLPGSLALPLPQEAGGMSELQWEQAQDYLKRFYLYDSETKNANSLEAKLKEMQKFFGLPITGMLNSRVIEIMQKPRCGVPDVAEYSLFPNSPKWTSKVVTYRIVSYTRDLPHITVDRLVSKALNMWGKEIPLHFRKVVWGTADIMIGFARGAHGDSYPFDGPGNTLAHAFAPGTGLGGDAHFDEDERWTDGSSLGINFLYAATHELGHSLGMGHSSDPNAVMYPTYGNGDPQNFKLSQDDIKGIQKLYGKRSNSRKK

[5] = Bioavailability in rat after po administration of 30 mg/kg dose; assay type: ADME, organism-based; conditions: in vivo
[6] = Half life was measured in rat at dose of 30 mg/kg by iv administration; assay type: ADME, organism-based; design: dose 30 mg/kg, route intravenous; conditions: in vivo
[7] = biological target: T2, 72 kDa type IV collagenase; assay: Inhibition of matrix metalloprotease 2 (MMP2) of human HT1080 fibrosarcoma cells induced with TNF
Stromelysin-1 [8] = biological target: T3, Stromelysin-1; assay: Inhibition of human recombinant matrix metalloprotease 3 (MMP3)
[9] = Bioavailability in monkey after po administration of 10 mg/kg dose; assay type: ADME, organism-based; conditions: primates, in vivo
[10] = Half life was measured in rat at dose of 30 mg/kg by po administration; assay type: ADME, organism-based; design: dose 30 mg/kg, route oral; conditions: in vivo

Row | IC50 (Interstitial collagenase) | IC50 [3] | IC50 (Stromelysin-1 [4]) | IC50 (Matrilysin) | SMILES | also measured
1 | 13 nM | 9.5 nM | 8.9 nM | 3.3 nM | CC(C)C[C@H]1C(=O)N[C@H](C(=O)c2ccccc2)Cc2ccc(cc2)OCCCC[C@@H]1C(=O)NO | bioavailability [1]: 33%; half-life [2]: 15 h
2 | – | 22 nM | – | 45 nM | C=CCC(C(=O)NO)C(CC(C)C)C(=O)N[C@@H](Cc1ccccc1)C(C)=O (single isomer, unassigned) | –
3 | 5 nM | 0.6 nM | – | 1.1 nM | CC(C)CC(C(=O)N[C@@H](Cc1ccccc1)C(=O)c1c[nH]c2ccccc12)C(O)C(=O)NO (single isomer, unassigned) | –
4 | 180 nM | 110 nM | 54 nM | 68 nM | C=CCC(C(=O)NO)C(CC(C)C)C(=O)N[C@@H](Cc1ccccc1)C(=O)c1nc2ccccc2[nH]1 (single isomer, unassigned) | –
5 | – | – | – | – | CNC(=O)[C@@H](NC(=O)C(CC(C)C)C(O)C(=O)NO)C(C)(C)C (single isomer, unassigned) | bioavailability [1]: 15%; half-life [2]: 27 h
6 | – | – | 2.6 nM | 6.1 nM | CNC(=O)[C@@H]1Cc2ccc(cc2)OCCCCC[C@H](C(=O)NO)[C@@H](CC(C)C)C(=O)N1 | –
7 | – | – | – | 11 nM | C=CCC(C(=O)NO)C(CC(C)C)C(=O)N[C@@H](Cc1ccccc1)C(=O)NC (single isomer, unassigned) | bioavailability [5]: 0%; half-life [6]: 0.35 h
8 | 40 nM | 33 nM | 82 nM | 39 nM | C=CCC(C(=O)NO)C(CC(C)C)C(=O)N[C@@H](Cc1ccccc1)C(=O)CC (single isomer, unassigned) | –
9 | 270 nM | 91 nM | 110 nM | 40 nM | CC(C)C[C@H]1C(=O)N[C@H](C(=O)c2ccc(C(C)(C)C)cc2)Cc2ccc(cc2)OCCCC[C@@H]1C(=O)NO | –
10 | 9.1 nM | 3.9 nM | – | 2.2 nM | CC(C)C[C@H]1C(=O)N[C@H](C(=O)c2ccccc2)Cc2ccc(cc2)OCCCCC[C@@H]1C(=O)NO | –
11 | – | – | – | 220 nM | C=CCC(C(=O)NO)C(CC(C)C)C(=O)N[C@@H](Cc1ccccc1)C(=O)c1nccs1 (single isomer, unassigned) | IC50 [7]: 1100 nM; IC50 (Stromelysin-1 [8]): 360 nM
12 | 4.8 nM | 6.1 nM | 5.1 nM | 3.1 nM | CC(C)C[C@H]1C(=O)N[C@H](C(=O)c2c[nH]c3ccccc23)Cc2ccc(cc2)OCCCCC[C@@H]1C(=O)NO | –
13 | 5 nM | 5.1 nM | 3.4 nM | 1.5 nM | CC(C)C[C@H]1C(=O)N[C@H](C(=O)c2ccc(CO)cc2)Cc2ccc(cc2)OCCCC[C@@H]1C(=O)NO | –
14 | 14 nM | 8.6 nM | 10 nM | 8.6 nM | C=CCC(C(=O)NO)C(CC(C)C)C(=O)N[C@@H](Cc1ccccc1)C(=O)c1cccnc1 (single isomer, unassigned) | –
15 | – | – | – | 2.4 nM | CNC(=O)[C@H](Cc1ccccc1)NC(=O)[C@H](CC(C)C)[C@H](CSc1cccs1)C(=O)NO [BATIMASTAT] | –
16 | 60 nM | 8.5 nM | 9.8 nM | 5.7 nM | CC(C)C[C@H]1C(=O)N[C@H](C(=O)c2ccc(S(C)(=O)=O)cc2)Cc2ccc(cc2)OCCCC[C@@H]1C(=O)NO | –
17 | 2.6 nM | 1.1 nM | – | 1.2 nM | C=CCC(C(=O)NO)C(CC(C)C)C(=O)N[C@@H](Cc1ccccc1)C(=O)c1ccc[nH]1 (single isomer, unassigned) | –
18 | – | 5.6 nM | 4 nM | – | CNC(=O)[C@@H]1Cc2ccc(cc2)OCCCC[C@H](C(=O)NO)[C@@H](CC(C)C)C(=O)N1 | –
19 | 1.2 nM | 1.6 nM | – | 0.78 nM | C=CCC(C(=O)NO)C(CC(C)C)C(=O)N[C@H](C(=O)c1c[nH]c2ccccc12)C(C)(C)C (single isomer, unassigned) | –
20 | 1.9 nM | 7.2 nM | 7.2 nM | 4.2 nM | CC(C)C[C@H]1C(=O)N[C@H](C(=O)c2ccc[nH]2)Cc2ccc(cc2)OCCCC[C@@H]1C(=O)NO | –
21 | – | – | – | – | C=CCC(C(=O)NO)C(CC(C)C)C(=O)N[C@@H](Cc1ccccc1)C(=O)c1c[nH]c2ccccc12 (single isomer, unassigned) | bioavailability [9]: 12%; bioavailability [5]: 7%; half-life [2]: 20 h; half-life [10]: 1.45 h
22 | 5.1 nM | 1 nM | – | 4.3 nM | CC(C)C[C@H](CC(=O)NO)C(=O)N[C@@H](Cc1ccccc1)C(=O)c1c[nH]c2ccccc12 | –
23 | 10 nM | 3.4 nM | – | 3.6 nM | C=CCC(C(=O)NO)C(CC(C)C)C(=O)N[C@@H](Cc1ccccc1)C(=O)c1ccccc1 (single isomer, unassigned) | –
24 | 0.26 nM | 0.38 nM | – | 0.3 nM | CC(C)CC(C(=O)N[C@H](C(=O)c1c[nH]c2ccccc12)C(C)(C)C)C(O)C(=O)NO (single isomer, unassigned) | bioavailability [1]: 10%; half-life [2]: 12 h

Row | SMILES | IC50 (Interstitial collagenase) | IC50 [3] | IC50 (Stromelysin-1 [4]) | IC50 (Matrilysin) | also measured
25 | C=CCC(C(=O)NO)C(CC(C)C)C(=O)N[C@@H](Cc1ccccc1)C(=O)c1cc[nH]c1 (single isomer, unassigned) | 6.2 nM | 2.7 nM | 6.6 nM | 8 nM | –
26 | C=CCC(C(=O)NO)C(CC(C)C)C(=O)N[C@@H](Cc1ccccc1)C(=O)c1ncco1 (single isomer, unassigned) | 2.7 nM | 7.2 nM | 1.8 nM | 4.2 nM | –
27 | C=CCC(C(=O)NO)C(CC(C)C)C(=O)N[C@@H](Cc1ccccc1)C(=O)c1cccs1 (single isomer, unassigned) | – | 6.5 nM | 3.2 nM | 13 nM | –
28 | C=CCC(C(=O)NO)C(CC(C)C)C(=O)N[C@@H](Cc1ccccc1)C(=O)c1cn(C)c2ccccc12 (single isomer, unassigned) | 4.7 nM | 23 nM | 36 nM | 29 nM | –
